Key:
[1] = Isothermal titration calorimetry with DMPC LUVs; assay type: binding; conditions: ITC, 25 °C
Experimental: The interaction of the peptides PNW and PCW with phospholipids was investigated using ITC at 25 °C, in which DMPC or DMPS LUVs were injected into an ITC cell containing peptide solutions of PNW or PCW. Based on the tryptophan fluorescence and quenching experiments, PNW and PCW could cover the trend of peptide-membrane interaction, thus, PMW was not included in the liposome experiments. The interaction of peptides with phospholipid bilayer membrane is entropy-driven. […] It is clear to see that the endothermic heat flow decreased with the increase of the number of injections and the free peptide concentration in the cell decreased simultaneously. The endothermic binding reaction of peptide PNW ceased after 20 injections, when all of peptide in bulk bound to DMPC LUVs (Figure 4A) and the further addition of DMPC LUVs caused dilution heat. However, the endothermic binding reaction of PCW ceased after 22 injections.
To mimic cancer cell and normal cell membranes, desired phospholipid powders were mixtured under certain ratios. Phospholipid mixtures were dissolved in chloroform, dried by N2 flow, and then vacuumed overnight to remove the trace of organic solvents. […] The phospholipid concentrations were determined by phosphorus analysis. […]

[2] = tested on: human red blood cells; assay type: cell-based; conditions: red cells of human, 1 h
Experimental: Peptide samples were serially diluted by PBS in 96-well plates (round bottom) to give a volume of 70 μL sample solution in each well. Human erythrocytes anticoagulated by EDTAK2 were collected by centrifugation (1000 rpm) for 5 min, and washed twice by PBS, then diluted to a concentration of 2% in PBS. 70 μL of 2% erythrocytes were added to each well to give a final concentration of 1% human erythrocytes in each well and plates were incubated at 37 °C for 1 h. The plates were then centrifuged for 10 min at 3,000 rpm and supernatant (90 μL) was transferred to a 96-well plate (flat bottom). The release of hemoglobin was determined by measuring the absorbance of the supernatant at 540 nm. The hemolytic activity was determined as the minimal peptide concentration that caused hemolysis (minimal hemolytic concentration, MHC). Erythrocytes in PBS and distilled water were used as control of 0% and 100% hemolysis, respectively.

[3] = Isothermal titration calorimetry with DMPS LUVs; assay type: binding; conditions: ITC, 25 °C, 10 mM HEPES, 150 mM NaCl pH 7.0
Experimental: To mimic cancer cell and normal cell membranes, desired phospholipid powders were mixtured under certain ratios. Phospholipid mixtures were dissolved in chloroform, dried by N2 flow, and then vacuumed overnight to remove the trace of organic solvents. The lipids were hydrated in 10 mM HEPES and 150 mM NaCl buffer (pH 7.4) and extensively vortexed above the phase-transition temperature of phospholipid, obtaining multilamellar large vesicles (MLVs). To obtain large unilamellar vesicles (LUVs), the MLVs was exposed to five freeze-thaw cycles and pass 21 times through two polycarbonate membrane (0.1 μm) with a mini-extruder above the phase-transition temperature of phospholipids. The phospholipid concentrations were determined by phosphorus analysis.
The affinity of peptides with LUV liposomes were detected by a Nano ITC2G isothermal titration calorimeter (TA Instrument Corp., New Castle, DE, USA) at 25 °C, under HEPES buffer condition (10 mM HEPES, and 150 mM NaCl (pH 7.0)). To avoid air bubbles, peptides and LUV solutions were degassed under vacuum 500 mmHg, for 14 min before using. […]

[4] = tested on: HeLa cells; assay type: cell-based, Human; conditions: 1 h
Experimental: The MTT assay has been used to test cytotoxicity of reagents and cell viability. Human cervix carcinoma cells (HeLa cells) were seeded in 96-well plates and incubated with serially 2-fold diluted concentration of different peptides (μM) for 1 h at 37 °C. As a negative control, cells were cultured without addition of the peptides. Thereafter, 20 μL of 5 mg/mL MTT solution in PBS were added to cells and treated for 4 h at 37 °C. The formazan crystals were dissolved by adding 150 μL dimethyl sulfoxide (DMSO) just before spectrometric determination. The absorbance was determined at 490 nm. The results were expressed as IC50, representing the concentration at which cell ability was reduced by 50%. The cytotoxicity assays were repeated in triplicates.

[5] = RP-HPLC temperature profiling (peptide self-association); assay type: physicochemical; conditions: RP-HPLC temperature profiling 5 to 80 °C in 5 °C increments; maximal retention time difference normalised to control peptide C; Zorbax 300 SB-C8
Experimental: Figure 2 Peptide self-association ability during RP-HPLC temperature profiling. The retention behavior of the peptides was normalized to that of the random coil peptide C through the expression (tR^t − tR^5 for peptide analogs) minus (tR^t − tR^5 for control peptide C), where tR^t is the retention time at a specific temperature of the anticancer peptides or the random coil peptide, and tR^5 is the retention time at 5 °C.
We utilized the RP-HPLC temperature profiling technique to determine the peptide self-association ability in aqueous solution which we believe is a very important parameter to understand anticancer activity. When the self-association ability of a peptide is too strong in aqueous solution, it could decrease the ability of the peptide to dissociate and penetrate into membranes to kill target cells. […] The curves were normalized with the control peptide C which is a monomeric random coil peptide in both aqueous and hydrophobic media, showing only the general temperature effects. The peptide self-association parameter (PA) is the maximum change in peptide retention time relative to the control peptide C, to quantify the self-association ability of peptides in solution. The details of how to determine peptide self-association parameter were reported previously. […]
Peptide samples were analyzed on a Shimadzu LC-20A HPLC column. […]

[6] = Circular dichroism spectroscopy (helicity); assay type: physicochemical; conditions: for [θ]222 Benign / [θ]222 SDS in Buffer / [θ]222 50%TFE: CD, 222 nm, 75 μM peptide; for [θ]222 Benign / [θ]222 SDS in Buffer / [θ]222 50%TFE / % Helix SDS in Buffer / % Helix 50%TFE: 25 °C; for [θ]222 Benign: KP buffer (100 mM KCl, 50 mM KH2PO4/K2HPO4, pH 7.4); for [θ]222 SDS in Buffer / % Helix SDS in Buffer: KP buffer with 10 mM SDS; for [θ]222 50%TFE / % Helix 50%TFE: KP buffer with 50% TFE; for % Helix Benign / % Helix SDS in Buffer / % Helix 50%TFE: relative to molar ellipticity of PMW in 50% TFE; for % Helix Benign: KP buffer pH 7.4, 25 °C
Experimental: Peptide secondary structure was measured by CD spectroscopy on a Jasco-810 spectropolarimeter under mild buffer conditions (50 mM KH2PO4/K2HPO4, and 100 mM KCl, pH 7), in 50% TFE and under mild buffer conditions with 10 mM SDS to mimic the hydrophobic environment of the cell membrane (Figure 1 and Table 2). All peptide analogs show negligible helical structures with molar ellipticity values ranging from −5900 to −7800 under mild conditions. In contrast, all peptide analogs were induced into highly helical structures with molar ellipticity values ranging from −24,300 to −31,700 in the hydrophobic environment of 50% TFE and molar ellipticity values ranging from −17,800 to −27,300 in the hydrophobic buffer environment in the presence of 10 mM SDS. […] It is obvious that the tryptophan residue played an important role in stabilizing the helical structure at the N-terminus or in the middle position of the peptide sequence.
Circular dichroism (CD) spectra were acquired with a 0.02 cm path length quartz cuvette on a Jasco J-810 spectropolarimeter (Jasco, Easton, MD, USA) at 25 °C as described previously. The concentration of 75 μM peptides was measured in benign buffer (50 mM KH2PO4/K2HPO4, and 100 mM KCl (pH 7.4)), benign buffer with 50% TFE and benign buffer with 10 mM SDS at 25 °C. The mean residue molar ellipticities were calculated by the equation [θ] = θ/10lCMn and θ is the ellipticity in millidegrees, l is the optical path length of the cuvette in centimeters, CM is the peptide concentration in mole/liter, and n is the number of residues in the peptide. The values of mean residue molar ellipticities of the peptide analogs at 222 nm were used to determine the relative helicity of the peptides.

[7] = RP-HPLC retention time (relative hydrophobicity); assay type: physicochemical; conditions: measure of relative hydrophobicity, Zorbax 300 SB-C8 150 × 4.6 mm, linear AB gradient 1% acetonitrile/min, 0.1% TFA, 1 mL/min
Experimental: The relative hydrophobicity of the peptides was determined by measuring their RP-HPLC retention times at 25 °C. The retention times of peptides are highly sensitive to the helicity of peptides upon the interaction between the peptide with the hydrophobic environment of the column matrix. From Table 2, the relative hydrophobicity of peptide analogs is in the order PCW < PMW < PNW. […] It is well known that the chromatography conditions characteristic of RP-HPLC (hydrophobic stationary phase, non-polar eluting solvent) induce helical structures in potentially helical peptides in a manner similar to that of the helix-inducing solvent trifloroethanol (TFE).
Peptide samples were analyzed on a Shimadzu LC-20A HPLC column. Runs were performed on a Zorbax 300 SB-C8 column (150 × 4.6 mm ID, 5 μm particle size, 300Å pore size) from Agilent Technologies, using a linear AB gradient (1% acetonitrile/min) and a flow rate of 1 mL/min, in which eluent A was 0.1% aqueous TFA in water and eluent B was 0.1% TFA in acetonitrile. Temperature profiling analyses during RP-HPLC were performed in 5 °C increments, from 5 °C to 80 °C, as described previously.

Compound | affinity constant Ka to DMPC LUVs [1] | Ka (affinity constant) ([1]; 10 mM HEPES, 150 mM NaCl pH 7.0) | MHC (minimal hemolytic concentration) [2] | Ka (affinity constant) [3] | IC50 [4] | PA (association parameter) [5] | [θ]222 Benign [6] | [θ]222 SDS in Buffer [6] | [θ]222 50%TFE [6] | % Helix Benign [6] | % Helix SDS in Buffer [6] | % Helix 50%TFE [6] | tR (retention time at 25 °C by RP-HPLC) [7]
CC[C@H](C)[C@H](NC(=O)[C@H](CCCCN)NC(C)=O)C(=O)N[C@@H](CCCCN)C(=O)N[C@@H](CO)C(=O)N[C@@H](Cc1ccccc1)C(=O)N[C@@H](CC(C)C)C(=O)N[C@@H](CCCCN)C(=O)N[C@H](C(=O)N[C@@H](Cc1ccccc1)C(=O)N[C@@H](CCCCN)C(=O)N[C@@H](CO)C(=O)N[C@@H](CC(C)C)C(=O)N[C@@H](CCCCN)C(=O)N[C@@H](CCCCN)C(=O)N[C@H](C(=O)N[C@H](C(=O)N[C@@H](CC(C)C)C(=O)N[C@@H](Cc1c[nH]cn1)C(=O)N[C@H](C(=O)N[C@@H](CC(C)C)C(=O)N[C@@H](CC(C)C)C(=O)N[C@@H](CCCCN)C(=O)N[C@@H](C)C(=O)N[C@@H](Cc1c[nH]c2ccccc12)C(=O)N[C@@H](CO)C(=O)N[C@@H](CO)C(N)=O)[C@@H](C)O)C(C)C)[C@@H](C)O)[C@@H](C)O [PCW] | 4150 M⁻¹ | 4.15 [M]^−1× 10^3 | 10.41 ± 0.01 µM | 17.70 [M]^−1× 10^3 | 2330 ± 120 nM | 4.5 min | −5900 degree cm^2 dmol^−1 | −17,800 degree cm^2 dmol^−1 | −24300 degree.cm^2.dmol^−1 | 18% | 56% | 76% | 45.6 min
CC[C@H](C)[C@H](NC(=O)[C@H](C)NC(=O)[C@H](CCCCN)NC(=O)[C@H](CC(C)C)NC(=O)[C@H](CC(C)C)NC(=O)[C@@H](NC(=O)[C@H](Cc1c[nH]cn1)NC(=O)[C@H](CC(C)C)NC(=O)[C@@H](NC(=O)[C@@H](NC(=O)[C@H](CCCCN)NC(=O)[C@H](CCCCN)NC(=O)[C@H](Cc1c[nH]c2ccccc12)NC(=O)[C@H](CO)NC(=O)[C@H](CCCCN)NC(=O)[C@H](Cc1ccccc1)NC(=O)[C@@H](NC(=O)[C@H](CCCCN)NC(=O)[C@H](CC(C)C)NC(=O)[C@H](Cc1ccccc1)NC(=O)[C@H](CO)NC(=O)[C@H](CCCCN)NC(=O)[C@@H](NC(=O)[C@H](CCCCN)NC(C)=O)[C@@H](C)CC)[C@@H](C)O)[C@@H](C)O)C(C)C)[C@@H](C)O)C(=O)N[C@@H](CO)C(=O)N[C@@H](CO)C(N)=O [PMW] |  |  | 10.41 ± 0.01 µM |  | 2470 ± 180 nM | 5.3 min | −7400 degree cm^2 dmol^−1 | −25,050 degree cm^2 dmol^−1 | −31900 degree.cm^2.dmol^−1 | 23% | 79% | 100% | 46.5 min
